This note sets out measurements from patent US20050176735A1, “Polymorphs of zaleplon and methods for the preparation thereof” (priority 2000, published 2005).

A short description of data set [1]: Moisture adsorption/desorption isotherm (moisture balance). In kind it is physicochemical. The following applies: for Hygroscopicity from moisture adsorption/desorption curves: 25° C., 5 to 95% relative humidity. On the procedure: Moisture adsorption; desorption data were collected on a VTI SGA-100 moisture balance system. available from VTI Corporation of Hialeah, Fla. For adsorption isotherms an adsorption range of 5 to 95% relative humidity and a desorption range of 95 to 5% relative humidity in 10% relative humidity increments were used for analysis. The samples were not dried prior to analysis. Equilibrium criteria used for analysis were less than 0.0100 weight percent change in 5 minutes with a maximum equilibration time of 3 hours if the weight criterion was not met. Data were not corrected for the initial moisture content of-the samples.

A short description of data set [2]: Relative solubility in water.
The nature of data set [3]: Solid-state stability on storage at controlled temperature and relative humidity or on heating. The settings on record: for Stability on storage (form conversion): about 60° C. and about 75% relative humidity; for Stability on heating (form conversion): heated at about 80° C.

`CCN(C(C)=O)c1cccc(-c2ccnc3c(C#N)cnn23)c1` [Form II, N-[3-(3-cyanopyrazolo[1,5a]pyrimidin-7-yl)phenyl]-N-ethylacetamide]: the “Hygroscopicity from moisture adsorption/desorption curves” value in data set [1] is reported as “moisture content of Form II of zaleplon varies depending on the relative humidity of its environment”. The “Form conversion in solvent” value (solvent system containing an organic solvent and optionally water) is given as “converts into Form III”. Also, the “Form conversion in water” value (water) is listed as “converted into Form III”. For the same molecule, the “Solubility in water relative to the other form” value in data set [2] is recorded as “mole soluble in water than Form III”. The Stability on storage entry in data set [3] (about 40° C. and about 75% relative humidity for 4 weeks) is recorded as “stable”. In addition, the “Stability on storage (form conversion)” value in data set [3] (4 weeks (same time period)) was “converts into Form I”. Moreover, the “Stability on heating (form conversion)” value in data set [3] was “converts into Form I”.
As for `CCN(C(C)=O)c1cccc(-c2ccnc3c(C#N)cnn23)c1` [Form III, N-[3-(3-cyanopyrazolo[1,5a]pyrimidin-7-yl)phenyl]-N-ethylacetamide], in data set [1] (relative humidity), the “Relative humidity up to which the form is generally anhydrous” value is “about 30%”. Besides, the “Relative stability in aqueous and non-aqueous environments” value (aqueous and non-aqueous environments) is “more stable in aqueous and non-aqueous environments than Form II”. The “Stability on storage of hydrates (form conversion)” value in data set [3] (about 40° C. and about 75% relative humidity, time not stated) was “resulting in a mixture of Forms II and III”. The “Stability on storage (form conversion)” value in data set [3] (time not stated) is on record as “converts to Form I”. Moreover, the “Stability on heating (form conversion)” value in data set [3] is on record as “converts to Form I”.
For `CCN(C(C)=O)c1cccc(-c2ccnc3c(C#N)cnn23)c1` [Form I, N-[3-(3-cyanopyrazolo[1,5a]pyrimidin-7-yl)phenyl]-N-ethylacetamide], the “Hygroscopicity from moisture adsorption/desorption curves” value in data set [1] is “non-hygroscopic”. In data set [3] (absence of water), the “Relative stability versus the other forms” value was “more stable than Forms II and III”. For the same molecule, the “General stability to humidity and temperature” value in data set [3] (broad range of humidity and temperature conditions) is given as “stable”.
